Reference: patent US20180215788A1, “Compounds and Compositions for the Treatment of Ophthalmic Disorders” (Shire Human Genetic Therapies, Inc., priority 2017, published 2018)
*1 amine or outer side, *2 acyl side, *3 side chain or, on linkers, in order; H or OH if unused. Where a SMILES comes first, the peptide text is derived from it. [ ]: non-standard residue; d: D form. The star is where a group is joined. dOrn(Me2) = CN(C)CCC[C@@H](N)C(=O)O; X1 = O=C([C@H]1CCCN([*:1])C1)[*:2]; Hyp = O=C(O)[C@@H]1C[C@@H](O)CN1; NMeL = CN[C@@H](CC(C)C)C(=O)O; Octanoyl = CCCCCCCC(=O)*

Test system: normotensive dogs
Test: Pharmacodynamics (IOP) after single topical ocular dose of SEQ ID NO:1, latanoprost or their combination
Assay type: in vivo
Conditions: for maximum percent change in intraocular pressure compared to contralateral eye / intraocular pressure: female dogs; for maximum percent change in intraocular pressure compared to contralateral eye: 0.03% SEQ ID NO:1, 0.005% latanoprost, alone or adjunctive, FIG. 6; for intraocular pressure: topical ocular 0.005% latanoprost, 0.03% SEQ ID NO:1, alone or adjunctively, FIG. 7
Experimental: A study of the pharmacodynamics following a single ascending topical ocular dose of SEQ ID NO:1; latanoprost; or a latanoprost/SEQ ID NO:1 combination was undertaken in normotensive dogs.
Animals were not fasted prior to dose administration. As appropriate, latanoprost was administered first followed by SEQ ID NO:1 approximately 5 minutes later. […] After the dose was administered, the eye was allowed to close naturally. Each animal was then restrained for approximately 1 minute to prevent rubbing of the eyes. The right eye was dosed first. All measurement and collection times were based on the time of dosing of the second (left) eye.
Following arrival, animals were preconditioned (trained) to IOP measurement procedures three times daily (i.e. 07:00, 12:00, and 15:00±0.5 hours) at least three times/week for approximately seven weeks prior to Phase 1. Three readings/eye were taken using a TonoVet.
Intraocular pressure was measured at −1, 0 (predose), 1, 2, 4, 8, 12, 24, and 48 hours postdose (following the last dose, as applicable) for all animals in Group 1, Phases 1 through 10. Three readings/eye were taken using a TonoVet.
Animals selected for pharmacodynamics (Group 1) were administered SEQ ID NO:1 (12, 35, 105, or 210 μg/eye), latanoprost (0.35, 0.875, or 1.75 μg/eye), and latanoprost/SEQ ID NO:1 in combination to the right eye (OD) and vehicle or phosphate-buffered saline (PBS) to the left eye (OS).
Intraocular pressure (IOP) was measured at various time points from pre-dose to 48 hours post-dose.
Pharmacodynamic animals (Group 1) were unilaterally treated with a single topical ocular dose of latanoprost (0.001, 0.0025, and 0.005%), followed by approximately 5 minutes later with a dose of SEQ ID NO:1 0.03%, in the right eye (OD) only.

SMILES	maximal delta decrease (Emax) in IOP, latanoprost dose response (dogs, latanoprost 0.001, 0.0025, 0.005% with SEQ ID NO:1 0.03%, FIG. 4)	maximum percent change in intraocular pressure compared to contralateral eye	intraocular pressure
CC(C)OC(=O)CCC/C=C\C[C@@H]1[C@@H](CC[C@@H](O)CCc2ccccc2)[C@H](O)C[C@@H]1O [latanoprost]	greater with increasing latanoprost concentrations, in combination with SEQ ID NO:1	21%	12 mmHg
CCCCCCCC(=O)N1CCC[C@H](C(=O)N[C@@H](Cc2ccccc2)C(=O)N[C@H](CCCN(C)C)C(=O)N[C@@H](CC(C)C)C(=O)N2C[C@H](O)C[C@H]2C(=O)N(C)[C@@H](CC(C)C)C(=O)N[C@@H](CC(=O)O)C(=O)N[C@@H](CCCNC(=N)N)C(=O)N[C@H](C(N)=O)[C@@H](C)CC)C1 [SEQ ID NO:1, Occ-Sni-Phe-orn(Me2)-Leu-Hyp-Nml-Asp-Arg-Ile-NH2] (Octanoyl-[X1]F[dOrn(Me2)]L[Hyp][NMeL]DRI-NH2)		16%	12 mmHg
